Assay results reported in article PMC5418314, “First-in-human phase I study of SOR-C13, a TRPV6 calcium channel inhibitor, in patients with advanced solid tumors” (Investigational New Drugs, 2017).
Like-named read-outs stand apart in the source and are kept apart here. Ends that are not written are not given here.

How the values were obtained:
[1] = tested on: voltage-gated potassium channels; assay: voltage-gated potassium channel activity; type: biochemical
[2] = GLP toxicology study, daily IV bolus for 28 days, rat; type: in vivo
Experimental: (§1) Anatomical pathology provided a No Observable Adverse Effect Level (NOAEL) of 200 mg/kg/day for rats. […] With results indicating antitumor activity in animal studies, a small toxicological footprint, a novel oncology target and a mechanism of action supported by the literature, SOR-C13 was formulated for intravenous injection (IV) for clinical evaluation. Here we present results of the ‘first-in-human’, Phase I clinical study evaluating SOR-C13 in adults with advanced solid tumors of epithelial origin refractory to all standard-of-care treatments.

[3] = GLP toxicology study, daily IV bolus for 28 days, dog; type: in vivo, beagle dogs
Experimental: as §1

[4] = Phase I plasma pharmacokinetics; type: in vivo, human; conditions: plasma LC-MS; for AUC(0-t) / Cmax / Tmax: plasma
Experimental: Blood samples were taken on Days 1, 3, 8 and 10 of Cycle 1 to assess the pharmacokinetic (PK) profile of SOR-C13 at the various doses used. Plasma samples for the IV 20 min infusion were taken at pre-infusion, 5, 15 min after the start of infusion and post-infusion at 2, 5, 10 and 30 min and 1, 4 h. Plasma samples for SOR-C13 analysis for the 90 min infusion were taken pre-infusion, at 5, 15 and 45 min after the start of infusion, and at 2, 5, 10 and 30 min post-infusion. Since the infusion for the majority of patients, and further studies will be IV 90 min only PK data for this infusion time are presented. Validated liquid chromatography-mass spectrometry analysis provided the plasma concentration/time data.

[5] = Cohort 3: 1.375 mg/kg, N = 3, 90-min IV infusion, Cycle 1 Day 8

For KEFLHPSKVDLPR [SOR-C13], the “modulation of channel activity” value [1] was “no modulation of channel activity”, the antigenicity [2] was “no antigenicity” and the cardiovascular toxicity [2] was “no cardiovascular toxicity”. For the same sequence, the toxicity [2] was “minimal toxicity”, the antigenicity [3] was “no antigenicity” and the cardiovascular toxicity [3] was “no cardiovascular toxicity”. The toxicity [3] was “minimal toxicity”, the “time after start of infusion by which steady state was achieved” value ([4]; 90-min infusion) was no more than 15 min and the “Peak plasma concentration, Median” value ([4]; Cohort 3: 1.375 mg/kg, N = 3, 90-min IV infusion, Cycle 1 Day 1) was 252.50 ng/mL. For the same sequence, the “Peak plasma concentration, Mean (SD)” value [4, 5] was 251.03 (75.53) ng/mL, the “Time to peak plasma concentration, Median” value (shortened to “Time … Median”) [4, 5] was 0.750 h and the “Time … Median” value ([4]; Cohort 4: 2.75 mg/kg, N = 6, 90-min IV infusion, Cycle 1 Day 3) was 0.750 h. For the same sequence, the “Time … Median” value ([4]; Cohort 5: 4.13 mg/kg, N = 3, 90-min IV infusion, Cycle 1 Day 10) was 0.250 h, the “Time … Median” value ([4]; Cohort 6: 6.2 mg/kg, N = 6, 90-min IV infusion, Cycle 1 Day 8) was 0.750 h and the half-life ([4]; human, iv, patients, 90-min infusion, read-out: elimination half-life (Thalf), estimated overall) was less than 5 min. The AUC(0-t) ([4]; human, iv, 1.375 mg/kg, Cohort 3: 1.375 mg/kg, N = 3, 90-min IV infusion, Cycle 1 Day 1, read-out: AUCtau, Mean (SD)) was 256 ng·h/mL, the AUC(0-t) ([4]; human, iv, 1.375 mg/kg, Cohort 3: 1.375 mg/kg, N = 3, 90-min IV infusion, Cycle 1 Day 1, read-out: AUCtau, Median) was 263 ng·h/mL and the Cmax ([4]; human, iv, 1.375 mg/kg, Cohort 3: 1.375 mg/kg, N = 3, 90-min IV infusion, Cycle 1 Day 1, read-out: Peak plasma concentration, Mean (SD)) was 244 ng/mL. The Tmax ([4]; human, iv, 1.375 mg/kg, Cohort 3: 1.375 mg/kg, N = 3, 90-min IV infusion, Cycle 1 Day 1, read-out: Time to peak plasma concentration, Mean (SD)) was 31.6 min, the Tmax ([4]; human, iv, 1.375 mg/kg, Cohort 3: 1.375 mg/kg, N = 3, 90-min IV infusion, Cycle 1 Day 1, read-out: Time to peak plasma concentration, Median) was 45 min and the AUC(0-t) ([4]; human, iv, 1.375 mg/kg, Cohort 3: 1.375 mg/kg, N = 3, 90-min IV infusion, Cycle 1 Day 3, read-out: AUCtau, Mean (SD)) was 148 ng·h/mL. It also gave an AUC(0-t) ([4]; human, iv, 1.375 mg/kg, Cohort 3: 1.375 mg/kg, N = 3, 90-min IV infusion, Cycle 1 Day 3, read-out: AUCtau, Median) of 168 ng·h/mL, a Cmax ([4]; human, iv, 1.375 mg/kg, Cohort 3: 1.375 mg/kg, N = 3, 90-min IV infusion, Cycle 1 Day 3, read-out: Peak plasma concentration, Mean (SD)) of 193 ng/mL and a Cmax ([4]; human, iv, 1.375 mg/kg, Cohort 3: 1.375 mg/kg, N = 3, 90-min IV infusion, Cycle 1 Day 3, read-out: Peak plasma concentration, Median) of 160 ng/mL. The Tmax ([4]; human, iv, 1.375 mg/kg, Cohort 3: 1.375 mg/kg, N = 3, 90-min IV infusion, Cycle 1 Day 3, read-out: Time to peak plasma concentration, Mean (SD)) was 11.6 min, the Tmax ([4]; human, iv, 1.375 mg/kg, Cohort 3: 1.375 mg/kg, N = 3, 90-min IV infusion, Cycle 1 Day 3, read-out: Time to peak plasma concentration, Median) was 15 min and the AUC(0-t) ([4]; human, iv, 1.375 mg/kg, Cohort 3: 1.375 mg/kg, N = 3, 90-min IV infusion, Cycle 1 Day 8, read-out: AUCtau, Mean (SD)) was 220 ng·h/mL. For the same sequence, the AUC(0-t) ([4]; human, iv, 1.375 mg/kg, Cohort 3: 1.375 mg/kg, N = 3, 90-min IV infusion, Cycle 1 Day 8, read-out: AUCtau, Median) was 230 ng·h/mL, the Cmax ([4]; human, iv, 1.375 mg/kg, Cohort 3: 1.375 mg/kg, N = 3, 90-min IV infusion, Cycle 1 Day 8, read-out: Peak plasma concentration, Median) was 237 ng/mL and the Tmax ([4]; human, iv, 1.375 mg/kg, Cohort 3: 1.375 mg/kg, N = 3, 90-min IV infusion, Cycle 1 Day 8, read-out: Time to peak plasma concentration, Mean (SD)) was 47.2 min. For the same sequence, the AUC(0-t) ([4]; human, iv, 1.375 mg/kg, Cohort 3: 1.375 mg/kg, N = 3, 90-min IV infusion, Cycle 1 Day 10, read-out: AUCtau, Mean (SD)) was 184 ng·h/mL, the AUC(0-t) ([4]; human, iv, 1.375 mg/kg, Cohort 3: 1.375 mg/kg, N = 3, 90-min IV infusion, Cycle 1 Day 10, read-out: AUCtau, Median) was 215 ng·h/mL and the Cmax ([4]; human, iv, 1.375 mg/kg, Cohort 3: 1.375 mg/kg, N = 3, 90-min IV infusion, Cycle 1 Day 10, read-out: Peak plasma concentration, Mean (SD)) was 224 ng/mL. It also gave a Cmax ([4]; human, iv, 1.375 mg/kg, Cohort 3: 1.375 mg/kg, N = 3, 90-min IV infusion, Cycle 1 Day 10, read-out: Peak plasma concentration, Median) of 181 ng/mL, a Tmax ([4]; human, iv, 1.375 mg/kg, Cohort 3: 1.375 mg/kg, N = 3, 90-min IV infusion, Cycle 1 Day 10, read-out: Time to peak plasma concentration, Mean (SD)) of 35 min and an AUC(0-t) ([4]; human, iv, 2.75 mg/kg, Cohort 4: 2.75 mg/kg, N = 6, 90-min IV infusion, Cycle 1 Day 1, read-out: AUCtau, Mean (SD)) of 435 ng·h/mL. For the same sequence, the AUC(0-t) ([4]; human, iv, 2.75 mg/kg, Cohort 4: 2.75 mg/kg, N = 6, 90-min IV infusion, Cycle 1 Day 1, read-out: AUCtau, Median) was 103 ng·h/mL, the Cmax ([4]; human, iv, 2.75 mg/kg, Cohort 4: 2.75 mg/kg, N = 6, 90-min IV infusion, Cycle 1 Day 1, read-out: Peak plasma concentration, Mean (SD)) was 524 ng/mL and the Cmax ([4]; human, iv, 2.75 mg/kg, Cohort 4: 2.75 mg/kg, N = 6, 90-min IV infusion, Cycle 1 Day 1, read-out: Peak plasma concentration, Median) was 194 ng/mL. The Tmax ([4]; human, iv, 2.75 mg/kg, Cohort 4: 2.75 mg/kg, N = 6, 90-min IV infusion, Cycle 1 Day 1, read-out: Time to peak plasma concentration, Mean (SD)) was 39.9 min, the Tmax ([4]; human, iv, 2.75 mg/kg, Cohort 4: 2.75 mg/kg, N = 6, 90-min IV infusion, Cycle 1 Day 1, read-out: Time to peak plasma concentration, Median) was 45 min and the AUC(0-t) ([4]; human, iv, 2.75 mg/kg, Cohort 4: 2.75 mg/kg, N = 6, 90-min IV infusion, Cycle 1 Day 3, read-out: AUCtau, Mean (SD)) was 365 ng·h/mL. For the same sequence, the AUC(0-t) ([4]; human, iv, 2.75 mg/kg, Cohort 4: 2.75 mg/kg, N = 6, 90-min IV infusion, Cycle 1 Day 3, read-out: AUCtau, Median) was 250 ng·h/mL, the Cmax ([4]; human, iv, 2.75 mg/kg, Cohort 4: 2.75 mg/kg, N = 6, 90-min IV infusion, Cycle 1 Day 3, read-out: Peak plasma concentration, Mean (SD)) was 374 ng/mL and the Cmax ([4]; human, iv, 2.75 mg/kg, Cohort 4: 2.75 mg/kg, N = 6, 90-min IV infusion, Cycle 1 Day 3, read-out: Peak plasma concentration, Median) was 265 ng/mL. For the same sequence, the Tmax ([4]; human, iv, 2.75 mg/kg, Cohort 4: 2.75 mg/kg, N = 6, 90-min IV infusion, Cycle 1 Day 3, read-out: Time to peak plasma concentration, Mean (SD)) was 40.3 min, the AUC(0-t) ([4]; human, iv, 2.75 mg/kg, Cohort 4: 2.75 mg/kg, N = 6, 90-min IV infusion, Cycle 1 Day 8, read-out: AUCtau, Mean (SD)) was 215 ng·h/mL and the AUC(0-t) ([4]; human, iv, 2.75 mg/kg, Cohort 4: 2.75 mg/kg, N = 6, 90-min IV infusion, Cycle 1 Day 8, read-out: AUCtau, Median) was 247 ng·h/mL. The Cmax ([4]; human, iv, 2.75 mg/kg, Cohort 4: 2.75 mg/kg, N = 6, 90-min IV infusion, Cycle 1 Day 8, read-out: Peak plasma concentration, Mean (SD)) was 239 ng/mL, the Cmax ([4]; human, iv, 2.75 mg/kg, Cohort 4: 2.75 mg/kg, N = 6, 90-min IV infusion, Cycle 1 Day 8, read-out: Peak plasma concentration, Median) was 282 ng/mL and the Tmax ([4]; human, iv, 2.75 mg/kg, Cohort 4: 2.75 mg/kg, N = 6, 90-min IV infusion, Cycle 1 Day 8, read-out: Time to peak plasma concentration, Mean (SD)) was 21.6 min. For the same sequence, the Tmax ([4]; human, iv, 2.75 mg/kg, Cohort 4: 2.75 mg/kg, N = 6, 90-min IV infusion, Cycle 1 Day 8, read-out: Time to peak plasma concentration, Median) was 15 min, the AUC(0-t) ([4]; human, iv, 2.75 mg/kg, Cohort 4: 2.75 mg/kg, N = 6, 90-min IV infusion, Cycle 1 Day 10, read-out: AUCtau, Mean (SD)) was 274 ng·h/mL and the AUC(0-t) ([4]; human, iv, 2.75 mg/kg, Cohort 4: 2.75 mg/kg, N = 6, 90-min IV infusion, Cycle 1 Day 10, read-out: AUCtau, Median) was 192 ng·h/mL. The Cmax ([4]; human, iv, 2.75 mg/kg, Cohort 4: 2.75 mg/kg, N = 6, 90-min IV infusion, Cycle 1 Day 10, read-out: Peak plasma concentration, Mean (SD)) was 290 ng/mL, the Cmax ([4]; human, iv, 2.75 mg/kg, Cohort 4: 2.75 mg/kg, N = 6, 90-min IV infusion, Cycle 1 Day 10, read-out: Peak plasma concentration, Median) was 232 ng/mL and the Tmax ([4]; human, iv, 2.75 mg/kg, Cohort 4: 2.75 mg/kg, N = 6, 90-min IV infusion, Cycle 1 Day 10, read-out: Time to peak plasma concentration, Mean (SD)) was 36.6 min.
